Test results: PMC10078976 (Nature chemistry, 2022)

B1: maltose binding protein (MBP) fusion to ThfB (enzyme)
chain: MSQAEYEFAATEARRGFGGIINSLTGWINHPSAIGRAEYKPYQLHHAVQAGLNVPRTLITNDPKQAKGWCARVGDVVYKPLSAPSWLENGDTYVVFTTPITPDQWGDPAIGRTAHMFQQRLDKEFEVRLTMVDGKAFPAAIHAHSDAARIDWRSDYDALTYSIPTVPQRVLTGARDLLRRLHLRYAALDFIVSPDGRWHFLEVNPNGQYGWIEEHTGQPISDAIADALTRKEN
modifications: not checked

Key:
[1] = lasso peptides, aspartimide hydrolysis; cited from earlier work
[2] = molecular target: doubly dehydrated C62A ThfA (Thermobifida fusca); test: BLI
[3] = molecular target: unmodified C62A ThfA (Thermobifida fusca); test: BLI

| Molecule | regioselectivity of aspartimide opening [1] | Kd [2] [nM] | Kd [3] [nM] |
| --- | --- | --- | --- |
| cellulonodin-2 | open exclusively to the Asp backbone form | – | – |
| lihuanodin | open exclusively to the Asp backbone form | – | – |
| B1 | – | 18 | 28 |
